According to patent US12474342B2, “Methods for treating cancer and the use of biomarkers as a predictor of clinical sensitivity to therapies” (CELGENE CORPORATION, priority 2016, dated 2025):
Where two headings read alike, the source gives them in different places. Marks after values point to notes of the source that are not given here.

Key:
GSPT1 [1] = biological target: T1, GSPT1 (Homo sapiens, UniProt P15170+Q96SW2); experiment: GSPT1 protein reduction, western analysis, AML-193; format: cell-based; set-up: reduction in GSPT1 protein level was evaluated in human normal PBMCs; endogenous in cells; host or cells: primary PBMCs from normal donors (ID 4328, 4379) and AML patients (ID 11SH, 09P6)
Method: (§1) The time course of the reduction in GSPT1 by Compound D also was studied for up to 48 hours. The progressive degradation of GSPT1 over the course of 1 to 20 hours was evident in the presence of all concentrations of Compound D studied from 3 to 300 nM in HNT-34, HL-60, and ML-2 cells, with little GSPT1 remaining by 20 hours at 100 or 300 nM Compound D in HNT-34 or HL-60 cells (FIG. 34 and FIG. 35C). Time-dependent reduction in GSPT1 was also observed in KG-1 and OCI-AML2 cells at 3 to 1000 nM Compound D, with little GSPT1 remaining in KG-1 cells at 100 to 300 nM at 24 hours or in OCI-AML2 cells at 300 and 1000 nM at 24 hours (FIG. 35D). Loss of GSPT1 occurred more slowly in Kasumi-1, AML-193, and […] cells. […] A positive association (r^2=0.50; […]

KG-1 AML cell cultures = experiment: Induction of apoptosis (Annexin V assay), KG-1; format: cell-based; details: Homo sapiens, read-out: Induction of Apoptosis by Compound D (Annexin V assay) EC50
KG-1a cells = experiment: Anti-proliferation 72-hour CTG assay, KG-1a; format: cell-based; details: Homo sapiens, read-out: IC50 of the anti-proliferative effect
Method: (§2) A plethora of AML cell lines were treated with serial dilutions of Compound D. IC50 value of the anti-proliferation effect of Compound D (as determined in 72-hour CTG assays) in each cell line is summarized in Table 1.

HL-60 cells = experiment: Apoptosis (caspase 3/7 activation), HL-60; format: cell-based, human; details: for EC50: Homo sapiens, read-out: Compound D-induced Apoptosis EC50
MOLM-13 cells = experiment: Anti-proliferation CTG assay, MOLM-13; format: cell-based, human
Method: as §2
The effect of overexpression of GSPT1 on the anti-proliferative effect of Compound D and Compound E was determined in human histiocytic lymphoma cell line U937 and human leukemia cell line MOLM13. Treatment compounds (e.g., Compound D or Compound E) were titrated from 0.001 μM to 10 μM. Cell proliferation was measured by CellTiter-Glo cell viability assay at 48 hours after treatment. […] However, when exogenous GSPT1 was overproduced via the EF1α promoter, as shown in FIGS. 5A-5D, the anti-proliferative effect of Compound D and Compound E reduced.

GSPT1 [2] = biological target: T1, GSPT1; experiment: GSPT1 protein reduction, western analysis, F36-P; format: cell-based; set-up: reduction in GSPT1 protein level was evaluated in human normal PBMCs; endogenous in cells; host or cells: primary PBMCs from normal donors (ID 4328, 4379) and AML patients (ID 11SH, 09P6)
Method: as §1

[3] = tested on: ATF3, DDIT3, cleaved Caspases, cleaved PARP; experiment: UPR and apoptosis pathway components in KG1 cells; format: cell-based, human; details: KG1, 200 nM
Method: Cells were treated with DMSO alone or 200 nM Compound D. After 2, 4, or 6 hours, the expression levels of various cellular components along UPR or apoptosis pathways were measured. […] Reduction of BIP indicates UPR.
Cells were treated with DMSO alone, 200 nM Compound D, or 200 nM Compound E. After 8 or 12 hours, the expression levels of various cellular components along UPR or apoptosis pathways were measured. […] Reduction of BIP indicates UPR.
To further investigate the timeline of cellular events upon Compound D treatment, KG1 cells were treated with DMSO alone or 200 nM Compound D. At 2, 4, 6, 8, 10, or 12 hours, the expression levels of various cellular components along ATF4 or apoptosis pathways were measured.

KG-1 cells = experiment: Anti-proliferation CTG assay, KG-1; format: cell-based, human
Method: The effect of depletion of GSPT1 on the anti-proliferative effect of compound Compound D and Compound E was also determined in human acute myelogenous leukemia cell lines AML and KG1. […]

[4] = tested on: p-eIF2α, ATF4, ATF3, CHOP/DDIT3, cleaved Caspases; experiment: UPR / ATF4 pathway and apoptosis markers in U937 cells (wild type and CRISPR knockouts); format: cell-based, human; details: for ATF4 pathway and apoptosis: 4 μM
Excerpt: PERK, one of the four eIF2α, kinases, was knocked out in U937 cells by CRISPR-mediated gene editing using PERK−/− Construct 1 or PERK−/− Construct 2.
GCN2, one of the four eIF2α, kinases, was knocked out in U937 cells by CRISPR-mediated gene editing using GCN2 CRISPR Construct 1 or GCN2 CRISPR Construct 4.

ATF3 = ATF3 protein induction, western blot, HNT-34; format: cell-based, human; details: HNT-34, 10 nM Compound D
Method: The time course of GSPT1 degradation was monitored by western blot analysis of HNT-34 AML cells and normal PBMCs (FIGS. 32A-32D) following incubation with Compound D (1, 10, and 100 nM).

T1 sequence (P15170 1-637 isoform P15170-3): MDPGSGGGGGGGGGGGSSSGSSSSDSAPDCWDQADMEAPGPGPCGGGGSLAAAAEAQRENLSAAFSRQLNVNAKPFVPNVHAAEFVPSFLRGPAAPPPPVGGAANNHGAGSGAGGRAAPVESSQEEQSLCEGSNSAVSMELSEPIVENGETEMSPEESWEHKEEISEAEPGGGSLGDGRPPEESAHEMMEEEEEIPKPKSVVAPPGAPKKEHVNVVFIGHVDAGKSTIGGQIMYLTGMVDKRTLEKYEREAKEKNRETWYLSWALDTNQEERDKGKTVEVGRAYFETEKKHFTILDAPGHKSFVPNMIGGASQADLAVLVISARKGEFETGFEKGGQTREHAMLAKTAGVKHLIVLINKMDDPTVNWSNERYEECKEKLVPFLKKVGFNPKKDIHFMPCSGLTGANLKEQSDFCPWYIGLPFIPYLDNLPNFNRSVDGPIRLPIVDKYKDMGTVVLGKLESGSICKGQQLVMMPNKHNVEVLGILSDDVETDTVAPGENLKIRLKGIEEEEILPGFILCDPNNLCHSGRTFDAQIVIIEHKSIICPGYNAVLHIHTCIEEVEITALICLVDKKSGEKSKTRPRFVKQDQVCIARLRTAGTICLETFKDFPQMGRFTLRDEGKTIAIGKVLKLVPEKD
T1 sequence (Q96SW2 whole entry): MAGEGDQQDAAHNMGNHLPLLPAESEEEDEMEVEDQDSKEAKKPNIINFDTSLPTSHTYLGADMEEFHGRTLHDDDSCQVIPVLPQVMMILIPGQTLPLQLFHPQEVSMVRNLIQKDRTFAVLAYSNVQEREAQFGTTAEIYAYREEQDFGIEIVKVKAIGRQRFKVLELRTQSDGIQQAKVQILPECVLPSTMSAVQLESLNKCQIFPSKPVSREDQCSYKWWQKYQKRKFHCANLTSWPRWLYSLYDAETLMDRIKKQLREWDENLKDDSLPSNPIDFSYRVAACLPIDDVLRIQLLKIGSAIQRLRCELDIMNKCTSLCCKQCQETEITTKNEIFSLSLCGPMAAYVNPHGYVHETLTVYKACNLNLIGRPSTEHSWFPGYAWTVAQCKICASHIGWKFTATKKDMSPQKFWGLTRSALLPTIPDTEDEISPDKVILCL
T1 sequence (Q16531 whole entry partner): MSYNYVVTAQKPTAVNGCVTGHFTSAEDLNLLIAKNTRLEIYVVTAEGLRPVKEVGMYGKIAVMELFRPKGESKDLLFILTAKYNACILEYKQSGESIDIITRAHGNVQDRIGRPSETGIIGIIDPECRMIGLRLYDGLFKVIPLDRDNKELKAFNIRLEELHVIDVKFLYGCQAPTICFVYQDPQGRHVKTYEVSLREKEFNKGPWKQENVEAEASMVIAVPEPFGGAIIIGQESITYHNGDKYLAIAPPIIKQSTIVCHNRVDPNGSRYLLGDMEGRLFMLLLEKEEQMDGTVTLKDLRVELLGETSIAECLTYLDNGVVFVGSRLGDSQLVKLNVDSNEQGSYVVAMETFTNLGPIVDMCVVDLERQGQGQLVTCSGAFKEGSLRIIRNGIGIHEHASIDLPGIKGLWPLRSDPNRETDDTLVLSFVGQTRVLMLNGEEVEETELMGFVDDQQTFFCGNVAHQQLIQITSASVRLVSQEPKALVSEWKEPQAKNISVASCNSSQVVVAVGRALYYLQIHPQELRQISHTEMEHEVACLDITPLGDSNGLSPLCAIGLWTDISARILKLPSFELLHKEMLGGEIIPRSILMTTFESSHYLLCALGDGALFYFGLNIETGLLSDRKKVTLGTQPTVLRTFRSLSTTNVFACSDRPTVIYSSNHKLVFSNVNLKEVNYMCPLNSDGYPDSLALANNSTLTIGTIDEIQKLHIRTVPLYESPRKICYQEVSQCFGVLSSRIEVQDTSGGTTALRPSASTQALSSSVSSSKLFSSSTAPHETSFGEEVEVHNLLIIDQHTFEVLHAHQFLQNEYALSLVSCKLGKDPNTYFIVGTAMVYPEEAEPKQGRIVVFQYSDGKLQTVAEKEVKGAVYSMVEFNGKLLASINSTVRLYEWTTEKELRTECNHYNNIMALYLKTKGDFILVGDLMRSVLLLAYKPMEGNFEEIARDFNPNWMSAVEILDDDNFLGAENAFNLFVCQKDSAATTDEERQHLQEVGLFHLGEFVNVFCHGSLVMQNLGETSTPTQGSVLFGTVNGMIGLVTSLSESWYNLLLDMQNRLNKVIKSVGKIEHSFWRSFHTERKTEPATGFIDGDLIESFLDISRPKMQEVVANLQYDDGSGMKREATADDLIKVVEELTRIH

## O=C1CCC(N2Cc3cc(CNC(=O)C(F)(F)c4ccc(Cl)cc4)ccc3C2=O)C(=O)N1 (stereo not shown) [Compound D, 2-(4-chlorophenyl)-N-((2-(2,6-dioxopiperidin-3-yl)-1-oxoisoindolin-5-yl)methyl)-2,2-difluoroacetamide]
GSPT1 [1]; AML-193, 100 nM, 8 hr
  Percent Reduction at 100 nM Compound D GSPTI (8 hr): 49%
GSPT1 [1]; AML-193, 300 nM Compound D, 8 hours
  GSPT1 reduction: 61%
KG-1 AML cell cultures; KG-1, Compound F 0 μM
  EC50: 20 nM
KG-1 AML cell cultures; KG-1, Compound F 0.1 μM
  EC50: 30 nM
KG-1 AML cell cultures; KG-1, Compound F 1.0 μM
  EC50: 100 nM
KG-1 AML cell cultures; KG-1, Compound F 10 μM
  EC50: 1000 nM
KG-1 AML cell cultures; KG-1, Compound F 100 μM
  EC50: 8000 nM
KG-1a cells
  IC50: 21 nM
HL-60 cells; HL-60, 41 nM, 24 hour time-point
  average percent increase in apoptosis: 9%
HL-60 cells; HL-60, 123 nM, 12 hr
  Average Percent Increase in Apoptosis at 123 nM Compound D, Apoptosis (12 hr): 1%
HL-60 cells; HL-60, 123 nM, 24 hr
  Average Percent Increase in Apoptosis at 123 nM Compound D, Apoptosis (24 hr): 19%
HL-60 cells; HL-60, 123 nM, 48 hr
  Average Percent Increase in Apoptosis at 123 nM Compound D, Apoptosis (48 hr): 62%
HL-60 cells; HL-60, 24 hr
  EC50: 73 nM
HL-60 cells; HL-60, 48 hr
  EC50: 15 nM
HL-60 cells; HL-60, 72 hr
  EC50: 8 nM
MOLM-13 cells; Homo sapiens, MOLM-13, 72-hour CTG assay, read-out: IC50 of the anti-proliferative effect
  IC50: 75 nM
MOLM-13 cells; MOLM13 CRBN -/- cells, 48 hours
  anti-proliferative effect: completely abolished
MOLM-13 cells; MOLM13 parental cells, 0.001 μM to 10 μM, 48 hours
  cell proliferation (CellTiter-Glo): inhibited cell proliferation
GSPT1 [2]; 100 nM, 8 hr, change not concentration-dependent at the 8-hour time point
  Percent Reduction at 100 nM Compound D GSPTI (8 hr): 39^a %
GSPT1 [2]; 300 nM Compound D, 8 hours
  GSPT1 reduction: 18%
[3]
  time at which levels of apoptotic markers started to increase: approximately 6 hrs
[3]; 8 or 12 hours
  level of ATF3, DDIT3, cleaved Caspase-3, cleaved Caspase-8, and cleaved PARP: increased the level
KG-1 cells; Homo sapiens, KG-1, KG-1, Compound F 0 μM, read-out: Inhibition of Cell Proliferation by Compound D (CTG assay) IC50
  IC50: 10 nM
KG-1 cells; Homo sapiens, KG-1, KG-1, Compound F 30 μM, read-out: Inhibition of Cell Proliferation by Compound D (CTG assay) IC50
  IC50: 1500 nM
KG-1 cells; Homo sapiens, KG-1, 72-hour CTG assay, read-out: IC50 of the anti-proliferative effect
  IC50: 15 nM
KG-1 cells; KG1 parental or control shRNA cells, 0.0001 μM to 1 μM, two days
  cell proliferation (CellTiter-Glo): exhibited anti-proliferative effect, particularly at high concentration
KG-1 cells; read-out: Inhibition of Cell Proliferation by Compound D (CTG assay) IC50
  IC50: 6800 nM
[4]; GCN2 knockout U937 cells
  ATF4 pathway and apoptosis: blocked
[4]; wild type U937 cells
  ATF4 pathway and apoptosis: induced the ATF4 pathway and apoptosis
[4]; wild type and PERK knockout U937 cells, 2 μM
  apoptosis: induced apoptosis
ATF3
  time of induction of ATF3 protein: 12 h
